For twelve molecules, inhibition, DC50 and Dmax results are on record in patent US20230416240A1, “KAT6 TARGETING COMPOUNDS” (Prelude Therapeutics Incorporated, priority 2022, published 2023).

Where only a bound is given, the exact number is not on record here.

Test [1] concerns the target T1, KAT6A (Homo sapiens, UniProt Q92794).
T1 construct: These studies were conducted in the HCC1954 cell line which harbors a KAT6A copy number amplification; endogenous in cells; host or cells: HCC1954
In words: Western Blot KAT6A Degradation Assessment. The test is classed as cell-based. As to conditions: 0.1 μM compound, 24 hours of treatment, HCC1954 cell line, KAT6A normalized to GAPDH and DMSO. The method, then:
The activity of compounds was evaluated by measuring KAT6A protein levels as a readout of KAT6A degradation ability using western blot. These studies were conducted in the HCC1954 cell line which harbors a KAT6A copy number amplification. Cells were maintained in a 37° C. incubator at 5% CO2 in the following media: RPMI 1640, ATCC© Modification (Gibco, A10491-01) supplemented with 10% v/v FBS (Gibco, 26140-079) and 1% penicillin streptomycin (Gibco, 15140-122). Cells were seeded in 6-well plates at a density of 300,000 cells/well and allowed to attach overnight in an incubator. Compounds dissolved in DMSO were prepared at 1000× the desired final concentration such that the final percentage of DMSO was 0.1%. After 24 hours of treatment, cells were washed with phosphate buffered saline (PBS) (Corning, 21-040-CV), detached with trypsin-EDTA (Gibco, #25200-056), and pelleted in complete RPMI media in a microcentrifuge for 5 min at 1500 rpm. Protein was extracted from cell pellets by re-suspending in 15 uL PBS before adding 45 uL of lysis buffer composed of 4% SDS, 1× protease and phosphatase inhibitors, and 1 mM PMSF (Cell Signaling Technology, #8553S). Lysates were transferred to homogenizer columns (Omega Biotek, #HCR003) and centrifuged for 1.5 min at 12,000 rpm.
Homogenized lysates were quantified by BCA assay (ThermoScientific, Pierce BCA Protein Assay, #23223, #23224) as per manufacturer instructions. Samples were then diluted in 4× Laemmli buffer (Biorad, #1610747) to a 1× solution which was boiled at 95° C. for 5 minutes. To assess KAT6A protein expression, samples were run on 26 well gels (Biorad, 4-15% Criterion TGX Precast gels, #5671085) at 120V for approximately 1 hour. Protein was transferred to low-fluorescence PVDF membranes (Millipore Sigma, #IPFL00010) using Trans-Blot Turbo Transfer System (Biorad). Membranes were then probed with KAT6A (Cell Signaling Technology, #78462) and GAPDH (Cell Signaling Technology, #5174S) primary, and fluorescently tagged secondary antibodies (LI-COR, IRDye 800CW Goat anti-rabbit #926-32211; IRDye 680RD Goat anti-mouse #926-68070) at manufacturer recommended conditions using the iBind Flex western device (Thermofisher, SLF2000). Membranes were washed briefly in water and scanned with a LI-COR Odyssey CLx. Quantification of bands was assessed using Image Studio Ver 5.2. to normalize KAT6A expression to GAPDH loading controls before representing KAT6A expression as a percentage of that observed in DMSO.

The target in test [2] is T2, HiBit tagged KAT6A (Homo sapiens, UniProt Q92794).
T2 construct: host or cells: HeLa
In words: HiBit KAT6A Degradation Assessment. As to conditions: HeLa cells with HiBit tagged KAT6A, 18 h of treatment, 9-point serial dilution. The test is classed as cell-based. The method, then:
The degradation activity of compounds was evaluated by measuring levels of KAT6A protein using the HiBiT system. These studies were conducted in HeLa cells with a HiBit tagged KAT6A. Cells were maintained in a 37° C. incubator at 5% CO2 in EMEM (ATCC, 30-2003) supplemented with 10% v/v FBS (Gibco, 26140-079) and 1% penicillin streptomycin. Cells were seeded in 384-well plates at a density of 2,000 cells/well. Compounds dissolved in DMSO were added in 9-point serial dilution. After 18 h of treatment, KAT6A levels were measured using the Nano-Glo® HiBiT Lytic Detection System (Promega catalog number N3030) per manufacturer's instructions. Luminescence signal was measured with a multimode plate reader (Envision 2105, Perkin Elmer). Luminescence values were normalized to background and DMSO controls to quantify KAT6A for each condition. Results were analyzed, and DC50 and Dmax values obtained using a four-parameter logistic curve fit.

T2 sequence (Q92794 whole entry): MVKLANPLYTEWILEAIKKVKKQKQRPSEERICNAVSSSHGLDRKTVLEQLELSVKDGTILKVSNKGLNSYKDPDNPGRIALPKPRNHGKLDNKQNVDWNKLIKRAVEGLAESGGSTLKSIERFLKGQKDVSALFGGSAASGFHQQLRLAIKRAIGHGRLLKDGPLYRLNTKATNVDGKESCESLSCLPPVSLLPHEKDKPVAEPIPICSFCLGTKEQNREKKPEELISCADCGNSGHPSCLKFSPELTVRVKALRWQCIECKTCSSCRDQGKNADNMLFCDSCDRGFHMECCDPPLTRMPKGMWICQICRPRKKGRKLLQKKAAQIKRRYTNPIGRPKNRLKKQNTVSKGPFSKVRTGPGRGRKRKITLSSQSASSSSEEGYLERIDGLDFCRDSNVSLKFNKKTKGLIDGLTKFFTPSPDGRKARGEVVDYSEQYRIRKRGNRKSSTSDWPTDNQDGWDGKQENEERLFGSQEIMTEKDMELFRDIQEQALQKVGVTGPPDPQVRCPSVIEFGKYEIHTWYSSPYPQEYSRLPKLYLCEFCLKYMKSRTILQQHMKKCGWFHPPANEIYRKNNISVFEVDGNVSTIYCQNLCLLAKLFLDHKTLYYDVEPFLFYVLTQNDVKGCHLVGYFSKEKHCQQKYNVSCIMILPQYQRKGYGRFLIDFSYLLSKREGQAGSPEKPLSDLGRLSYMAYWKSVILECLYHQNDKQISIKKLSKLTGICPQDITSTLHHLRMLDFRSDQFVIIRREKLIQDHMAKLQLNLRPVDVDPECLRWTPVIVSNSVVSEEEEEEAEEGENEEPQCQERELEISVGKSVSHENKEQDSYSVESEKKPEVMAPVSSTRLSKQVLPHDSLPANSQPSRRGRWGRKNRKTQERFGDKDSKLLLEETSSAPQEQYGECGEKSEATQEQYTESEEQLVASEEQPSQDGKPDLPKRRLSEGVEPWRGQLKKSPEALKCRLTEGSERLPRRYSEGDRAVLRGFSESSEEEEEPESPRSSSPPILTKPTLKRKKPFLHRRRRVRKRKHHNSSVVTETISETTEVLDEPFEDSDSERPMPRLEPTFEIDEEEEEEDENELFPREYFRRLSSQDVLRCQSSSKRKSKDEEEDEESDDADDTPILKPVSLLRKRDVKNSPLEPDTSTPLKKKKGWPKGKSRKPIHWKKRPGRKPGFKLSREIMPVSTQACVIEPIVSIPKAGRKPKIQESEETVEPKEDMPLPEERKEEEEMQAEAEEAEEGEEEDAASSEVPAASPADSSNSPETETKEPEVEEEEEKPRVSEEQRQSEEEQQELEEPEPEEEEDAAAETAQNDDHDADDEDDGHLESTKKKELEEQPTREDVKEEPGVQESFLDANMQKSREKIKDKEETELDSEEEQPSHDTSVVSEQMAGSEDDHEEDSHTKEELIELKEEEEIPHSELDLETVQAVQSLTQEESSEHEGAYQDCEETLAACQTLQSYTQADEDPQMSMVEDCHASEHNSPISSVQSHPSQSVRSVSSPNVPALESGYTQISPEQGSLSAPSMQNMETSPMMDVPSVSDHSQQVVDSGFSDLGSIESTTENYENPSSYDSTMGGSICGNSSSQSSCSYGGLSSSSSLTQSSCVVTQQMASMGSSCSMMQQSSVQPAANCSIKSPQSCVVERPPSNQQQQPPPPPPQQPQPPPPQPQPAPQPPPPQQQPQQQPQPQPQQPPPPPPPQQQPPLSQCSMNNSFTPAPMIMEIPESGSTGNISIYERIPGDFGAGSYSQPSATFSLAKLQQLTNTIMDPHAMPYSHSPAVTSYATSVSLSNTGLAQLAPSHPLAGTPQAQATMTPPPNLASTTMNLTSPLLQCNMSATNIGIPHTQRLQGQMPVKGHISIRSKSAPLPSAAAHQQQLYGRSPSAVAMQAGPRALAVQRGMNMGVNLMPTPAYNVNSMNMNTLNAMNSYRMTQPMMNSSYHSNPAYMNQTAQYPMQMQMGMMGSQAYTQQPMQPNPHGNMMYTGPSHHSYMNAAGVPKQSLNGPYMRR
T1 sequence (Q92794 whole entry): as above

`COc1cc(Cn2cccn2)cc2onc(NS(=O)(=O)c3cccc(N4CCN(CC5CCN(c6ccc7c(c6)C(=O)N(C6CCC(=O)NC6=O)C7=O)C5)CC4)c3)c12` (stereo not drawn) [Example 1, N-(6-((1H-Pyrazol-1-yl)methyl)-4-methoxybenzo[d]isoxazol-3-yl)-3-(4-((1-(2-(2,6-dioxopiperidin-3-yl)-1,3-dioxoisoindolin-5-yl)pyrrolidin-3-yl)methyl)piperazin-1-yl)benzenesulfonamide]: the inhibition at 0.1 µM in test [1] fell in the range of 50 to 75%. In test [2], this molecule showed a DC50 of 100 to 1000 nM and a Dmax of 50 to 75%.
In turn, `COc1cc(Cn2cccn2)cc2onc(NS(=O)(=O)c3cccc(N4CCN(CCCC5CCN(c6ccc7c(c6)C(=O)N(C6CCC(=O)NC6=O)C7=O)CC5)CC4)c3)c12` (stereo not drawn) [Example 2, N-(6-((1H-Pyrazol-1-yl)methyl)-4-methoxybenzo[d]isoxazol-3-yl)-3-(4-(3-(1-(2-(2,6-dioxopiperidin-3-yl)-1,3-dioxoisoindolin-5-yl)piperidin-4-yl)propyl)piperazin-1-yl)benzenesulfonamide] gave an inhibition at 0.1 µM in test [1] of 50 to 75%. In addition, in test [2], the Dmax lay in the range of 25 to 50%.
In the case of `COc1cc(Cn2cccn2)cc2onc(NS(=O)(=O)c3cccc(N4CCN(CCC5CCN(c6ccc7c(c6)C(=O)N(C6CCC(=O)NC6=O)C7=O)CC5)CC4)c3)c12` (stereo not drawn) [Example 3, N-(6-((1H-Pyrazol-1-yl)methyl)-4-methoxybenzo[d]isoxazol-3-yl)-3-(4-(2-(1-(2-(2,6-dioxopiperidin-3-yl)-1,3-dioxoisoindolin-5-yl)piperidin-4-yl)ethyl)piperazin-1-yl)benzenesulfonamide], the inhibition at 0.1 µM in test [1] was in the range of 0 to 50%. In addition, in test [2], the DC50 is 10 to 100 nM and the Dmax is 50 to 75%.
For `COc1cc(Cn2cccn2)cc2onc(NS(=O)(=O)c3cccc(N4CCN(C5CC6(CCN(c7ccc8c(c7)C(=O)N(C7CCC(=O)NC7=O)C8=O)CC6)C5)CC4)c3)c12` (stereo not drawn) [Example 4, 3-[4-[7-[2-(2,6-Dioxopiperidin-3-yl)-1,3-dioxoisoindol-5-yl]-7-azaspiro[3.5]nonan-2-yl]piperazin-1-yl]-N-[4-methoxy-6-(pyrazol-1-ylmethyl)-1,2-benzoxazol-3-yl]benzenesulfonamide] the same measures were 50 to 75%, 10 to 100 nM and over 75%.
For `COc1cc(Cn2cccn2)cc2onc(NS(=O)(=O)c3cccc(N4CC5(CCN(CC6CCN(c7ccc8c(c7)C(=O)N(C7CCC(=O)NC7=O)C8=O)C6)CC5)C4)c3)c12` (stereo not drawn) [Example 5, 3-[7-[[1-[2-(2,6-Dioxopiperidin-3-yl)-1,3-dioxoisoindol-5-yl]pyrrolidin-3-yl]methyl]-2,7-diazaspiro[3.5]nonan-2-yl]-N-[4-methoxy-6-(pyrazol-1-ylmethyl)-1,2-benzoxazol-3-yl]benzenesulfonamide] the same measures were over 75%, under 10 nM and over 75%.
The corresponding values for `COc1cc(Cn2cccn2)cc2onc(NS(=O)(=O)c3cccc(N4CCC(CN5CCN(c6ccc7c(c6)c6cccnc6n7C6CCC(=O)NC6=O)CC5)C4)c3)c12` (stereo not drawn) [Example 6, 3-[3-[[4-[9-(2,6-Dioxopiperidin-3-yl)pyrido[2,3-b]indol-6-yl]piperazin-1-yl]methyl]pyrrolidin-1-yl]-N-[4-methoxy-6-(pyrazol-1-ylmethyl)-1,2-benzoxazol-3-yl]benzenesulfonamide] are 50 to 75%, 10 to 100 nM and 50 to 75%.
`COc1cc(Cn2cccn2)cc2onc(NS(=O)(=O)c3cccc(N4CCN(CC5CCN(CC6CCN(c7ccc8c(c7)C(=O)N(C7CCC(=O)NC7=O)C8=O)CC6)CC5)CC4)c3)c12` (stereo not drawn) [Example 7, 3-[4-[[1-[[1-[2-(2,6-Dioxopiperidin-3-yl)-1,3-dioxoisoindol-5-yl]piperidin-4-yl]methyl]piperidin-4-yl]methyl]piperazin-1-yl]-N-[4-methoxy-6-(pyrazol-1-ylmethyl)-1,2-benzoxazol-3-yl]benzenesulfonamide] yielded an inhibition at 0.1 µM in test [1] of over 75%. In addition, in test [2], the DC50 was under 10 nM and the Dmax is over 75%.
`COc1cc(Cn2cccn2)cc2onc(NS(=O)(=O)c3cccc(N4CCN(C5CC6(CCN(c7ccc8c(c7)C(=O)N(C7CCC(=O)NC7=O)C8=O)C6)C5)CC4)c3)c12` (stereo not drawn) [Example 8, 3-[4-[6-[2-(2,6-Dioxopiperidin-3-yl)-1,3-dioxoisoindol-5-yl]-6-azaspiro[3.4]octan-2-yl]piperazin-1-yl]-N-[4-methoxy-6-(pyrazol-1-ylmethyl)-1,2-benzoxazol-3-yl]benzenesulfonamide]: the inhibition at 0.1 µM in test [1] was over 75%. In test [2], this molecule displayed a DC50 of 10 to 100 nM and a Dmax of 50 to 75%.
The molecule `COc1cc(Cn2cccn2)cc2onc(NS(=O)(=O)c3cccc(N4CCN(CCC5CCN(c6ccc7c(c6)C(=O)N(C6CCC(=O)NC6=O)C7=O)C5)CC4)c3)c12` (stereo not drawn) [Example 9, 3-[4-[2-[1-[2-(2,6-Dioxopiperidin-3-yl)-1,3-dioxoisoindol-5-yl]pyrrolidin-3-yl]ethyl]piperazin-1-yl]-N-[4-methoxy-6-(pyrazol-1-ylmethyl)-1,2-benzoxazol-3-yl]benzenesulfonamide] displayed an inhibition at 0.1 µM in test [1] of 0 to 50%. In test [2], this molecule returned a DC50 of 10 to 100 nM and a Dmax of 50 to 75%.
As to `COc1cc(Cn2cccn2)cc2onc(NS(=O)(=O)c3cccc(N4CCN(CC5CCN(c6ccc7c(c6)CN(C6CCC(=O)NC6=O)C7=O)C5)CC4)c3)c12` (stereo not drawn) [Example 10, 3-[4-[[1-[2-(2,6-Dioxopiperidin-3-yl)-1-oxo-3H-isoindol-5-yl]pyrrolidin-3-yl]methyl]piperazin-1-yl]-N-[4-methoxy-6-(pyrazol-1-ylmethyl)-1,2-benzoxazol-3-yl]benzenesulfonamide], in test [1], the inhibition at 0.1 µM was in the range of 50 to 75%. Also, in test [2], the Dmax was in the range of 25 to 50%.
For `COc1cc(Cn2cccn2)cc2onc(NS(=O)(=O)c3cccc(N4CC5(CN(CC6CCN(c7ccc8c(c7)C(=O)N(C7CCC(=O)NC7=O)C8=O)C6)C5)C4)c3)c12` (stereo not drawn) [Example 11, 3-[6-[[1-[2-(2,6-dioxopiperidin-3-yl)-1,3-dioxoisoindol-5-yl]pyrrolidin-3-yl]methyl]-2,6-diazaspiro[3.3]heptan-2-yl]-N-[4-methoxy-6-(pyrazol-1-ylmethyl)-1,2-benzoxazol-3-yl]benzenesulfonamide], the inhibition at 0.1 µM in test [1] lay in the range of 50 to 75%. In addition, in test [2], the DC50 is 10 to 100 nM and the Dmax lay in the range of 50 to 75%.
For `COc1cc(Cn2cccn2)cc2onc(NS(=O)(=O)c3cccc(N4CCN(CC5CN(c6ccc7c(c6)C(=O)N(C6CCC(=O)NC6=O)C7=O)C5)CC4)c3)c12` (stereo not drawn) [Example 42, N-(6-((1H-pyrazol-1-yl)methyl)-4-methoxybenzo[d]isoxazol-3-yl)-3-(4-((1-(2-(2,6-dioxopiperidin-3-yl)-1,3-dioxoisoindolin-5-yl)azetidin-3-yl)methyl)piperazin-1-yl)benzenesulfonamide], in test [2], the DC50 was 10 to 100 nM and the Dmax lay within 50 to 75%.

In general, inhibition refers to the relative decrease from the control value, in per cent. Read a low inhibition as little suppression. For orientation: DC50 means the midpoint of the concentration-degradation curve. For orientation: Dmax means the largest share of the target that was removed.
